We go through 9 compounds from ChEMBL document CHEMBL1131503, “Design and synthesis of enantiomers of 3,5-dinitro-o-tyrosine: alpha-amino-3-hydroxy-5-methyl-4-isoxazolepropanoic acid (AMPA) receptor antagonists” (J Med Chem, 1998).

This experiment concerns the target Glutamate receptor ionotropic, AMPA (Rattus norvegicus) (UniProt P19491+P19492+P19493+P19490). Description: The compound was tested for the % displacement of [3H]AMPA binding to Ionotropic glutamate receptor AMPA in rat brain membranes at a concentration of 100 uM. The format is cell membranes. For orientation: Displacement assays read how much labelled ligand stays bound in the presence of the test substance.
Regarding `COc1c(CC(NC(=O)OC(C)(C)C)C(=O)O)cc([N+](=O)[O-])cc1[N+](=O)[O-]` (centres undefined), the Displacement was determined as 26%.

`O=[N+]([O-])c1cc2nc(O)c(O)nc2cc1[N+](=O)[O-]` had a Displacement of 99%.

In turn, `NC(Cc1ccccc1OCC(=O)O)C(=O)O` (centres undefined) showed a Displacement of 20%.

Consider `NC(Cc1cc([N+](=O)[O-])cc([N+](=O)[O-])c1O)C(=O)O` (centres undefined), for which the Displacement was 76%.

With `N[C@@H](Cc1cc([N+](=O)[O-])cc([N+](=O)[O-])c1O)C(=O)O`, the Displacement was determined as 78%.

The compound `N[C@H](Cc1cc([N+](=O)[O-])cc([N+](=O)[O-])c1O)C(=O)O` registered a Displacement of 58%.

`CC(=O)NC(Cc1cc([N+](=O)[O-])cc([N+](=O)[O-])c1O)C(=O)O` (centres undefined) came in with a Displacement of 14%.

`COc1c(CC(N)C(=O)O)cc([N+](=O)[O-])cc1[N+](=O)[O-]` (centres undefined) returned a Displacement of 66%.

Compound `CC(C)(C)OC(=O)NC(Cc1cc([N+](=O)[O-])cc([N+](=O)[O-])c1O)C(=O)O` (centres undefined) showed a Displacement of 17%.
